The results in this text go back to ChEMBL document CHEMBL5291721, “A preclinical secondary pharmacology resource illuminates target-adverse drug reaction associations of marketed drugs” (Nat Commun, 2023).

The target of one test is Adenosine receptor A2a (Homo sapiens, UniProt P29274).
The target of test [1] is Sodium-dependent noradrenaline transporter (Homo sapiens, UniProt P23975).
Another test deals with D(1A) dopamine receptor (Homo sapiens, UniProt P21728). It counts as functional, cell-based.
Sequence of D(1A) dopamine receptor (P21728 whole entry): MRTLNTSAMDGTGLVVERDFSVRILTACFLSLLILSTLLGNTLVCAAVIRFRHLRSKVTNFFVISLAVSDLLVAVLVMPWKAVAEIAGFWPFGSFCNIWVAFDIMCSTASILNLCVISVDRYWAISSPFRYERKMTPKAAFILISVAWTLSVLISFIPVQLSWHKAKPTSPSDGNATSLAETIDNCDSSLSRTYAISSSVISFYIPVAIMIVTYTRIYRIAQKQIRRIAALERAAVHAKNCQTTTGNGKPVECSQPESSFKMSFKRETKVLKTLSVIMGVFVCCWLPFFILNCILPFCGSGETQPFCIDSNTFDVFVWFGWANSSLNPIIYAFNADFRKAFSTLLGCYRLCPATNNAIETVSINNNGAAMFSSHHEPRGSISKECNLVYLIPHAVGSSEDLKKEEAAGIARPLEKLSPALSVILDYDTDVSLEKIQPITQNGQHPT
In a further test the target is Melanocortin receptor 3 (Homo sapiens, UniProt P41968).
Sequence of Melanocortin receptor 3 (P41968 whole entry): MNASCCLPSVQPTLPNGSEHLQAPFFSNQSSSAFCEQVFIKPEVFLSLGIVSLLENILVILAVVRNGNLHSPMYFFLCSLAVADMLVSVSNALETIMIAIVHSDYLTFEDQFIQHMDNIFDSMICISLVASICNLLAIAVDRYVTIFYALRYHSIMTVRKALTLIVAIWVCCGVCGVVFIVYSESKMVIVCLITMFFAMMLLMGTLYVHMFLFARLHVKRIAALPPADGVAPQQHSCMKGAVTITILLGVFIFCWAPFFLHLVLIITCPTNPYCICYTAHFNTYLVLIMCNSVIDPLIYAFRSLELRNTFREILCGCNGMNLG
In a further test the target is Bile salt export pump (Homo sapiens, UniProt O95342). It is filed as functional.
Sequence of Bile salt export pump (O95342 whole entry): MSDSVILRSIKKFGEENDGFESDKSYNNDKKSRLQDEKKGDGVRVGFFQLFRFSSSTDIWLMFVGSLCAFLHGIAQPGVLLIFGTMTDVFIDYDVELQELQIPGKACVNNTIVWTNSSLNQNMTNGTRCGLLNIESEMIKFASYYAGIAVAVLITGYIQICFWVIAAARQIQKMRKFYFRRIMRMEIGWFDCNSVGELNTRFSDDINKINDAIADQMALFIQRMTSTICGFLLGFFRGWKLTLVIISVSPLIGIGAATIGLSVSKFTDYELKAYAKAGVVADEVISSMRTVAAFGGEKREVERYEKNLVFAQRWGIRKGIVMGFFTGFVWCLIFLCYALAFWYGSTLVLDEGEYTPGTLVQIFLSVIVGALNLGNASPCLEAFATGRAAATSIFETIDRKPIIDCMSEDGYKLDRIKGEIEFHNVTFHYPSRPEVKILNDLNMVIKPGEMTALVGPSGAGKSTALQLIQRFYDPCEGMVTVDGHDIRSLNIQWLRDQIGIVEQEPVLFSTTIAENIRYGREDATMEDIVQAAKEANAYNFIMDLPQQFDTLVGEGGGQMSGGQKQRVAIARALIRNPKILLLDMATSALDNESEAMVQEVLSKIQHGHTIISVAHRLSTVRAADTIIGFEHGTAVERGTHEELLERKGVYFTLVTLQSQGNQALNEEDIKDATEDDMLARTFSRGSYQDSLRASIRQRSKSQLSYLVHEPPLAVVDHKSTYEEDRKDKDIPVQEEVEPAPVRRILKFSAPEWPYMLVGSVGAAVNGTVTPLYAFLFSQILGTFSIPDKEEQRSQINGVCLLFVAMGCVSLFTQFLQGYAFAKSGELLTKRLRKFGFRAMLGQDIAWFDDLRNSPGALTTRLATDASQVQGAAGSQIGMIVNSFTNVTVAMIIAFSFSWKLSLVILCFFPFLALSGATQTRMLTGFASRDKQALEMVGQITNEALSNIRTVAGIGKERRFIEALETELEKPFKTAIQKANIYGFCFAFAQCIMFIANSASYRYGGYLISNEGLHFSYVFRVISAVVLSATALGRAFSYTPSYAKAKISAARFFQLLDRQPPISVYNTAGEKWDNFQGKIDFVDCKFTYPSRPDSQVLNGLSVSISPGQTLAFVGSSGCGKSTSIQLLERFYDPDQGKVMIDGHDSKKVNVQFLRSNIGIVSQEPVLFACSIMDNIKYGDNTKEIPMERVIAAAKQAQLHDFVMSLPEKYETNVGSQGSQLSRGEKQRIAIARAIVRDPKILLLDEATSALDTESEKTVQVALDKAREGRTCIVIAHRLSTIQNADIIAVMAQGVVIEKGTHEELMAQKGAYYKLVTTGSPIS
The target in test [2] is 3',5'-cyclic-AMP phosphodiesterase 4D (Homo sapiens, UniProt Q08499). It counts as functional.
Sequence of 3',5'-cyclic-AMP phosphodiesterase 4D (Q08499 whole entry): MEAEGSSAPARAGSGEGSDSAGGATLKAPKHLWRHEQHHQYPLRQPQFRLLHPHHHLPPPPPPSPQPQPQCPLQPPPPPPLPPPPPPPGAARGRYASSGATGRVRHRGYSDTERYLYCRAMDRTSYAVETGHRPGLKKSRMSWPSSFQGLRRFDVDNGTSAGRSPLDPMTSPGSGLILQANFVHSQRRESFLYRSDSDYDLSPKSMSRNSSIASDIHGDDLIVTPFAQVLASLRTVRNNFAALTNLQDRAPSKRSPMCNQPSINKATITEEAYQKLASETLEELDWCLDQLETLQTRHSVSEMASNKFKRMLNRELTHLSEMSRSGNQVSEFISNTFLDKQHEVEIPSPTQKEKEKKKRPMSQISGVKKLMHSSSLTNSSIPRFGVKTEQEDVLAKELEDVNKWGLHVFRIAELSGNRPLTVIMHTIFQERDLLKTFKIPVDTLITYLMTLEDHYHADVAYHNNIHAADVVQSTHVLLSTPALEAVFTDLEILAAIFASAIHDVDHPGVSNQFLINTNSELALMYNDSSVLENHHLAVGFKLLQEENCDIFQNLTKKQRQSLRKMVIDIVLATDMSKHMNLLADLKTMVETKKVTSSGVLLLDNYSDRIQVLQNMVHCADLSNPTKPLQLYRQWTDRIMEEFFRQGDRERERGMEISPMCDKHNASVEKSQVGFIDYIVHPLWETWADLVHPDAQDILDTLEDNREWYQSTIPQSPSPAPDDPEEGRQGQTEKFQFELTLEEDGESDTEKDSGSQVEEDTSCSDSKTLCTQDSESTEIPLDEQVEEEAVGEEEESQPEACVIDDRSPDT
For test [3], the target named is T1, 5-hydroxytryptamine receptor 1A (Homo sapiens, UniProt P08908).
T1 sequence (P08908 whole entry): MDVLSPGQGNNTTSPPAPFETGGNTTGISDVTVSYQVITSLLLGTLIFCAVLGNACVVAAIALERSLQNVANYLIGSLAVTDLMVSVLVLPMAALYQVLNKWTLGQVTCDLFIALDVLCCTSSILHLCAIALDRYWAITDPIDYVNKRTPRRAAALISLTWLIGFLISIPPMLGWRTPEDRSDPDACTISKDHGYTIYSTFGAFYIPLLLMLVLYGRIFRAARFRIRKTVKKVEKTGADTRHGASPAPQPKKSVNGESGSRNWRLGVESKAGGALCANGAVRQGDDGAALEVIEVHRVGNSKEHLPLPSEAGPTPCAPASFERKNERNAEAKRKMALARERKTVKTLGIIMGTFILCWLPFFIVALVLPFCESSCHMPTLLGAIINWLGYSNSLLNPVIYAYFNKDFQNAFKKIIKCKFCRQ
It counts as functional, cell-based.

Test [4] concerns the target T2, 5-hydroxytryptamine receptor 3A (Homo sapiens, UniProt P46098).
T2 sequence (P46098 whole entry): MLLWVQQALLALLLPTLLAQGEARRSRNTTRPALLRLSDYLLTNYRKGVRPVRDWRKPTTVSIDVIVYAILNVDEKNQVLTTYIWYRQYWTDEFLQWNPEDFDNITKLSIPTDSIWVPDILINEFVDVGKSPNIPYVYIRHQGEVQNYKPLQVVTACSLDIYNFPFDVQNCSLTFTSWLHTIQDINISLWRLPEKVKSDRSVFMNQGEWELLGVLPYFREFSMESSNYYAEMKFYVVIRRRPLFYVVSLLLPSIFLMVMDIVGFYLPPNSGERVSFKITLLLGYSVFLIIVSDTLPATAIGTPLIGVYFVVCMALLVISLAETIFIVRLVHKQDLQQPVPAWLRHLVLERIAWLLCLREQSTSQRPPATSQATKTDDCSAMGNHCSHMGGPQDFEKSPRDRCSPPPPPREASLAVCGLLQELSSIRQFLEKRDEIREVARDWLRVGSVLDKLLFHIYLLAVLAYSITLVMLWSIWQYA
It counts as functional.

Test [5] addresses T3, Alpha-2C adrenergic receptor (Homo sapiens, UniProt P18825).
T3 sequence (P18825 whole entry): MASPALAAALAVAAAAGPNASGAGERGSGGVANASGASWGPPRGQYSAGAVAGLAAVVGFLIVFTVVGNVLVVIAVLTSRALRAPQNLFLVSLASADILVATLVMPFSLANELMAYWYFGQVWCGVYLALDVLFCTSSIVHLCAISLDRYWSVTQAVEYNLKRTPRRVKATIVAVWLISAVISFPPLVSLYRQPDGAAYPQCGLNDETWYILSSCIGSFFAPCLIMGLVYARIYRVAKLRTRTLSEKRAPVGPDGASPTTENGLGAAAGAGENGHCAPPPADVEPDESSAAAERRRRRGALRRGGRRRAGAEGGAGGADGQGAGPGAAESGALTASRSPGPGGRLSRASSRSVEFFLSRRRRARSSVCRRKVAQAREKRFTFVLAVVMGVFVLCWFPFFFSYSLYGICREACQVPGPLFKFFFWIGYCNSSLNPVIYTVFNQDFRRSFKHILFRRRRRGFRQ
It counts as functional.

The next test has as its target T4, Adenosine receptor A1 (Homo sapiens, UniProt P30542).
T4 sequence (P30542 whole entry): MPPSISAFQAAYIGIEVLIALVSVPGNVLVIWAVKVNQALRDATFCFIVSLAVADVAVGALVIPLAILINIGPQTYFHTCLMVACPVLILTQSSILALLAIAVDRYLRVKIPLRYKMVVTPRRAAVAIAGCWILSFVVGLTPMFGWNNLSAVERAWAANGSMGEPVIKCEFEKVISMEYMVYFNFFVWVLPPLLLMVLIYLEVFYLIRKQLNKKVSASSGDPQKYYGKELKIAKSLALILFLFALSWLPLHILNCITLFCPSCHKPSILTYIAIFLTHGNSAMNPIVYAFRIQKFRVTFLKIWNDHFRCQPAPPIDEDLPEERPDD

Test [6] has as its target 5-hydroxytryptamine receptor 2B (Homo sapiens, UniProt P41595). It counts as functional, cell-based.
Test [7] concerns the target Delta-type opioid receptor (Homo sapiens, UniProt P41143).
Test [8] concerns the target T5, Alpha-2A adrenergic receptor (Homo sapiens, UniProt P08913).
T5 sequence (P08913 whole entry): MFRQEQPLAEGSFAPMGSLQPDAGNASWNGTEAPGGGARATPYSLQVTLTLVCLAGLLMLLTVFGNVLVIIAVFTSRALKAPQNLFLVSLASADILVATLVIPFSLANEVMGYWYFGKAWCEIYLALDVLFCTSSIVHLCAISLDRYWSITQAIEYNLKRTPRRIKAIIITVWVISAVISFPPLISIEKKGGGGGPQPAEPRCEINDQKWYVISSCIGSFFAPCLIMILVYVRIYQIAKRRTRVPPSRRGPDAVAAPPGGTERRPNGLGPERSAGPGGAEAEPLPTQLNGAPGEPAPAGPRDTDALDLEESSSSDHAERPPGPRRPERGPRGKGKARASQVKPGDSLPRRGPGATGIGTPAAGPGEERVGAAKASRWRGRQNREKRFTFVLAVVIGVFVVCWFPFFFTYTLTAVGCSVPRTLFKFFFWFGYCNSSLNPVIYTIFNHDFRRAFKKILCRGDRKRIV
It counts as functional, cell-based.
Note: assay procedure not described here.

Sequence of Sodium-dependent noradrenaline transporter (P23975 whole entry): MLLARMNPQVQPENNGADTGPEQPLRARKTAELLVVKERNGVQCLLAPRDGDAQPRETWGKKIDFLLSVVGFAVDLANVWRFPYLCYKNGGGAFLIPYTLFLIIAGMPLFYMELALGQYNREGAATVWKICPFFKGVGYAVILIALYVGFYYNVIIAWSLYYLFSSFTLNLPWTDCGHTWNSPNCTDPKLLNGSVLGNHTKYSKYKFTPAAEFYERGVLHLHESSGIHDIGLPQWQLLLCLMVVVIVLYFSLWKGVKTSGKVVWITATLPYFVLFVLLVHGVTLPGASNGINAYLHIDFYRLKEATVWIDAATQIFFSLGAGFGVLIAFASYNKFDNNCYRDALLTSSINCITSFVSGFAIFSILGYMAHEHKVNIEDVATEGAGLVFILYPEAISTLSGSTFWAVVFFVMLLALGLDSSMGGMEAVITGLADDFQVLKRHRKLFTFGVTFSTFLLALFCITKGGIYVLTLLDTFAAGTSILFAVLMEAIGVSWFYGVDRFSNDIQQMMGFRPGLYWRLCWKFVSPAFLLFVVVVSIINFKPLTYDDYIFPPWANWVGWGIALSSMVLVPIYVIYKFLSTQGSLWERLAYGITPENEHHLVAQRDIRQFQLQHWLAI
Sequence of Adenosine receptor A2a (P29274 whole entry): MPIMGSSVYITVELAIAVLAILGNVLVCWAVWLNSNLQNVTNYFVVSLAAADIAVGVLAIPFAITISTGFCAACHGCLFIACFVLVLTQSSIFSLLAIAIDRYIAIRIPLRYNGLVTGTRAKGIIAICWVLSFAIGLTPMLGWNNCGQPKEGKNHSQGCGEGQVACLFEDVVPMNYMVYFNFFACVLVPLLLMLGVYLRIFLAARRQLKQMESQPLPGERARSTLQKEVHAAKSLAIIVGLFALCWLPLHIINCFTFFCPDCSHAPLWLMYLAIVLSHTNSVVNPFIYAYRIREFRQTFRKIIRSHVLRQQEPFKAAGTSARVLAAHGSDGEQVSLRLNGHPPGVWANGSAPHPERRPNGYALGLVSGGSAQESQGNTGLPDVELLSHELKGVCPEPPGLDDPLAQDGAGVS
Sequence of 5-hydroxytryptamine receptor 2B (P41595 whole entry): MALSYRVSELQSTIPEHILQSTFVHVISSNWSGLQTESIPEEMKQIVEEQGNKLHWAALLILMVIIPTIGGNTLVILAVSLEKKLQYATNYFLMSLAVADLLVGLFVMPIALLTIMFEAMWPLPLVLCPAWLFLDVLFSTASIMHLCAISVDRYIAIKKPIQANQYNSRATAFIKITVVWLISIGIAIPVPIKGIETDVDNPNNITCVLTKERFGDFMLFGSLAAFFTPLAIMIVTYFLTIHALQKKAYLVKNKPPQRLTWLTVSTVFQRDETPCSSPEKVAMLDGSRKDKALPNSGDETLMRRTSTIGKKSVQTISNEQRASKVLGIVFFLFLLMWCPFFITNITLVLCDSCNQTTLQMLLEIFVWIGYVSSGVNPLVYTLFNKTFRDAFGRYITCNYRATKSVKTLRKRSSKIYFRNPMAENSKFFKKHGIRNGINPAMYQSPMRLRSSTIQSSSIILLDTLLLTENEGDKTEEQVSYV
Sequence of Delta-type opioid receptor (P41143 whole entry): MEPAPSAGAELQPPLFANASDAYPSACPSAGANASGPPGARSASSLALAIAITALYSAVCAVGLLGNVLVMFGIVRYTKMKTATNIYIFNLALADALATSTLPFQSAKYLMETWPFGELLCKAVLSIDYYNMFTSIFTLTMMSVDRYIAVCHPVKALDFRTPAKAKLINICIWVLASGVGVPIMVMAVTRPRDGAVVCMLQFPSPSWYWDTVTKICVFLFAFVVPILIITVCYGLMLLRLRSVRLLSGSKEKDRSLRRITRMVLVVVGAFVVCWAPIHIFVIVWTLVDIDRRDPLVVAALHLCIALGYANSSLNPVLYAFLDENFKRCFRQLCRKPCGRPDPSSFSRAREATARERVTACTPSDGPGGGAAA

By AC50 is commonly meant the concentration giving half of the maximal activity seen. Regarding `CNC1(C)C2CCC(C2)C1(C)C` (stereo unspecified) [MECAMYLAMINE], the concentration at half-maximal activity (AC50) on Adenosine receptor A2a is above 10 µM; in test [1] it was above 10 µM; at D(1A) dopamine receptor it was above 10 µM; at Melanocortin receptor 3 it was above 10 µM; at Bile salt export pump it was above 300 µM; in [2], above 30 µM. Besides, the half-maximal activity concentration (AC50) in [3] was above 10 µM; in test [4], above 30 µM; in test [5], above 10 µM; at Adenosine receptor A1, above 10 µM; in [6] it was above 10 µM; in test [7], above 30 µM. The compound further registered an AC50 in test [8] above 10 µM.
In the case of `CO[C@@H]1[C@@H](OC(N)=O)[C@@H](O)[C@H](Oc2ccc3c(O)c(NC(=O)c4ccc(O)c(CC=C(C)C)c4)c(=O)oc3c2C)OC1(C)C` [NOVOBIOCIN], the concentration at half-maximal activity (AC50) at Adenosine receptor A2a was above 30 µM; in [1], above 30 µM; on D(1A) dopamine receptor, above 30 µM; on Melanocortin receptor 3 it was above 30 µM; at Bile salt export pump, 220 µM; in [2], above 30 µM. For the same compound, the concentration at half-maximal activity (AC50) (in test [3]; in [4]; in [5]; at Adenosine receptor A1; in test [6]; in [7]) was above 30 µM each time. The compound further gave an AC50 in test [8] above 30 µM.
For `CCC1(c2ccccc2)C(=O)NCNC1=O` [PRIMIDONE], the AC50 at Adenosine receptor A2a was above 10 µM; in test [1] it was above 10 µM; on D(1A) dopamine receptor it was above 10 µM; at Melanocortin receptor 3 it was above 10 µM; on Bile salt export pump it was above 300 µM; in test [2] it was above 30 µM. Also, the half-maximal activity concentration (AC50) is above 10 µM in test [3]; above 30 µM in test [4]; above 10 µM in test [5]; above 10 µM at Adenosine receptor A1; above 10 µM in test [6]; above 30 µM in test [7]. The compound further came in with an AC50 in test [8] above 10 µM.
As for `CC(=O)SCC(Cc1ccccc1)C(=O)NCC(=O)OCc1ccccc1` (stereo unspecified) [RACECADOTRIL], the half-maximal activity concentration (AC50) at Adenosine receptor A2a was above 30 µM; in test [1], above 10 µM; on D(1A) dopamine receptor, above 30 µM; on Melanocortin receptor 3, above 30 µM; on Bile salt export pump, 21 µM; in test [2] it was above 30 µM. Further, the AC50 (in [3]; in [4]; in test [5]; at Adenosine receptor A1; in [6]; in test [7]) was above 30 µM each time. The same compound gave an AC50 in test [8] above 30 µM.
As to `CCOc1ccccc1OCCN[C@H](C)Cc1ccc(OC)c(S(N)(=O)=O)c1` [TAMSULOSIN], the AC50 on Adenosine receptor A2a is above 30 µM; in test [1], above 30 µM; at D(1A) dopamine receptor, above 10 µM; on Melanocortin receptor 3 it was above 30 µM; on Bile salt export pump, above 300 µM; in test [2], above 30 µM. In addition, the AC50 in test [3] is above 10 µM; in test [4], above 30 µM; in test [5] it was 0.3 µM; on Adenosine receptor A1 it was above 30 µM; in test [6], 6.4 µM; in [7], above 30 µM. In addition, the AC50 in test [8] was above 30 µM.
For the compound `C[C@H](Cn1cnc2c(N)ncnc21)OCP(=O)(O)O` [TENOFOVIR ANHYDROUS], the AC50 on Adenosine receptor A2a is above 30 µM; in test [1] it was above 30 µM; on D(1A) dopamine receptor, above 30 µM; at Melanocortin receptor 3, above 30 µM; on Bile salt export pump, above 300 µM; in test [2] it was above 30 µM. Further, the AC50 is above 30 µM in [3]; above 30 µM in [4]; above 30 µM in [5]; above 30 µM at Adenosine receptor A1; above 30 µM in [6]; above 10 µM in test [7]. The AC50 in test [8] was above 30 µM.
Take `COc1cc2c(cc1OC)C1CC(=O)C(CC(C)C)CN1CC2` (stereo unspecified) [TETRABENAZINE]: the AC50 was above 30 µM on Adenosine receptor A2a; above 30 µM in test [1]; above 30 µM at D(1A) dopamine receptor; above 30 µM at Melanocortin receptor 3; 74 µM at Bile salt export pump; above 30 µM in test [2]. For the same compound, the AC50 was 18 µM in test [3]; above 30 µM in [4]; above 30 µM in test [5]; above 30 µM at Adenosine receptor A1; 8.6 µM in [6]; above 30 µM in [7]. The AC50 in test [8] was above 30 µM.
